Results as given in PubChem BioAssay (NCI).
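Step 1: Grow cells in 96-well plates. Step 2: Expose to compound for 48 hours at 5 concentrations. Step 3: Interpolate endpoints linearly; if unreached, use highest concentration. GI50 = concentration required for 50% inhibition of growth. TGI is the concentration that stops growth completely.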

What was measured:
Assay in all cases: NCI-60 cell line screen, 48 h
HL-60(TB) leukemia = system: HL-60(TB) leukemia
MDA-MB-231 breast = system: MDA-MB-231 breast
DU-145 prostate = system: DU-145 prostate
SF-268 CNS = system: SF-268 CNS
HOP-92 NSCLC = system: HOP-92 NSCLC
HCT-116 colon = system: HCT-116 colon
UACC-62 melanoma = system: UACC-62 melanoma
SK-MEL-2 melanoma = system: SK-MEL-2 melanoma
HT29 colon = system: HT29 colon
SF-539 CNS = system: SF-539 CNS
EKVX NSCLC = system: EKVX NSCLC
OVCAR-4 ovarian = system: OVCAR-4 ovarian
T-47D breast = system: T-47D breast
SF-295 CNS = system: SF-295 CNS
CCRF-CEM leukemia = system: CCRF-CEM leukemia
MDA-MB-435 = system: MDA-MB-435
RXF 393 renal = system: RXF 393 renal
CAKI-1 renal = system: CAKI-1 renal
OVCAR-8 ovarian = system: OVCAR-8 ovarian
SK-MEL-5 melanoma = system: SK-MEL-5 melanoma
SNB-75 CNS = system: SNB-75 CNS
OVCAR-5 ovarian = system: OVCAR-5 ovarian
MCF7 breast = system: MCF7 breast
NCI-H522 lung = system: NCI-H522 lung
K-562 leukemia = system: K-562 leukemia
NCI-H23 lung = system: NCI-H23 lung
TK-10 renal = system: TK-10 renal
HCC-2998 colon = system: HCC-2998 colon
SNB-19 CNS = system: SNB-19 CNS
A498 renal = system: A498 renal
KM12 colon = system: KM12 colon
A549 NSCLC = system: A549 NSCLC
NCI-H226 lung = system: NCI-H226 lung
MALME-3M melanoma = system: MALME-3M melanoma
COLO 205 colon = system: COLO 205 colon
UACC-257 melanoma = system: UACC-257 melanoma
786-0 renal = system: 786-0 renal
MOLT-4 leukemia = system: MOLT-4 leukemia
RPMI-8226 leukemia = system: RPMI-8226 leukemia
PC-3 prostate = system: PC-3 prostate
HS 578T breast = system: HS 578T breast
SW-620 colon = system: SW-620 colon
U251 CNS = system: U251 CNS
LOX IMVI melanoma = system: LOX IMVI melanoma
SK-OV-3 ovarian = system: SK-OV-3 ovarian
HCT-15 colon = system: HCT-15 colon
M14 melanoma = system: M14 melanoma
HOP-62 NSCLC = system: HOP-62 NSCLC
SR leukemia = system: SR leukemia
SK-MEL-28 melanoma = system: SK-MEL-28 melanoma
SN12C renal = system: SN12C renal
NCI/ADR-RES ovarian = system: NCI/ADR-RES ovarian
BT-549 breast = system: BT-549 breast
IGROV1 ovarian = system: IGROV1 ovarian
ACHN renal = system: ACHN renal
NCI-H460 lung = system: NCI-H460 lung
OVCAR-3 ovarian = system: OVCAR-3 ovarian
MDA-N = system: MDA-N
UO-31 renal = system: UO-31 renal

Compound: CCOc1cc(-c2nncn2C)ccc1Nc1ncc2cc(C)nc(NCC(C)(C)C)c2n1
- GI50 (HL-60(TB) leukemia): > 100 µM
- TGI (HL-60(TB) leukemia): > 100 µM
- TGI (MDA-MB-231 breast): > 100 µM
- GI50 (DU-145 prostate): > 30.7 µM
- TGI (DU-145 prostate): > 100 µM
- GI50 (SF-268 CNS): > 100 µM
- TGI (SF-268 CNS): > 100 µM
- GI50 (HOP-92 NSCLC): > 26 µM
- TGI (HOP-92 NSCLC): > 100 µM
- GI50 (HCT-116 colon): 0.0849 µM
- TGI (HCT-116 colon): > 100 µM
- GI50 (UACC-62 melanoma): > 100 µM
- TGI (UACC-62 melanoma): > 100 µM
- GI50 (SK-MEL-2 melanoma): > 100 µM
- TGI (SK-MEL-2 melanoma): > 100 µM
- GI50 (HT29 colon): 1.78 µM
- TGI (HT29 colon): > 100 µM
- TGI (SF-539 CNS): > 100 µM
- TGI (EKVX NSCLC): > 100 µM
- GI50 (OVCAR-4 ovarian): > 29.3 µM
- TGI (OVCAR-4 ovarian): > 100 µM
- GI50 (T-47D breast): 2.83 µM
- TGI (T-47D breast): > 100 µM
- GI50 (SF-295 CNS): > 100 µM
- TGI (SF-295 CNS): > 100 µM
- GI50 (CCRF-CEM leukemia): 0.321 µM
- TGI (CCRF-CEM leukemia): > 100 µM
- GI50 (MDA-MB-435): > 100 µM
- TGI (MDA-MB-435): > 100 µM
- GI50 (RXF 393 renal): 2.33 µM
- TGI (RXF 393 renal): > 100 µM
- GI50 (CAKI-1 renal): > 26.6 µM
- TGI (CAKI-1 renal): > 100 µM
- TGI (OVCAR-8 ovarian): > 100 µM
- GI50 (SK-MEL-5 melanoma): > 24 µM
- TGI (SK-MEL-5 melanoma): > 100 µM
- GI50 (SNB-75 CNS): > 26 µM
- TGI (SNB-75 CNS): > 100 µM
- GI50 (OVCAR-5 ovarian): > 100 µM
- TGI (OVCAR-5 ovarian): > 100 µM
- TGI (MCF7 breast): > 100 µM
- GI50 (NCI-H522 lung): > 64.4 µM
- TGI (NCI-H522 lung): > 100 µM
- TGI (K-562 leukemia): > 100 µM
- GI50 (NCI-H23 lung): > 89.7 µM
- TGI (NCI-H23 lung): > 100 µM
- GI50 (TK-10 renal): > 100 µM
- TGI (TK-10 renal): > 100 µM
- GI50 (HCC-2998 colon): > 100 µM
- TGI (HCC-2998 colon): > 100 µM
- GI50 (SNB-19 CNS): > 100 µM
- TGI (SNB-19 CNS): > 100 µM
- GI50 (A498 renal): 0.514 µM
- TGI (A498 renal): > 100 µM
- GI50 (KM12 colon): > 100 µM
- TGI (KM12 colon): > 100 µM
- GI50 (A549 NSCLC): 2.34 µM
- TGI (A549 NSCLC): > 100 µM
- GI50 (NCI-H226 lung): > 23.5 µM
- TGI (NCI-H226 lung): > 100 µM
- GI50 (MALME-3M melanoma): > 100 µM
- TGI (MALME-3M melanoma): > 100 µM
- GI50 (COLO 205 colon): 1.4 µM
- TGI (COLO 205 colon): > 100 µM
- GI50 (UACC-257 melanoma): > 100 µM
- TGI (UACC-257 melanoma): > 100 µM
- GI50 (786-0 renal): > 100 µM
- TGI (786-0 renal): > 100 µM
- TGI (MOLT-4 leukemia): > 100 µM
- GI50 (RPMI-8226 leukemia): 2.31 µM
- TGI (RPMI-8226 leukemia): > 100 µM
- TGI (PC-3 prostate): > 100 µM
- TGI (HS 578T breast): > 100 µM
- GI50 (SW-620 colon): 0.439 µM
- TGI (SW-620 colon): > 100 µM
- GI50 (U251 CNS): > 100 µM
- TGI (U251 CNS): > 100 µM
- GI50 (LOX IMVI melanoma): 1.1 µM
- TGI (LOX IMVI melanoma): > 100 µM
- GI50 (SK-OV-3 ovarian): > 100 µM
- TGI (SK-OV-3 ovarian): > 100 µM
- GI50 (HCT-15 colon): 0.193 µM
- TGI (HCT-15 colon): > 100 µM
- GI50 (M14 melanoma): > 100 µM
- TGI (M14 melanoma): > 100 µM
- GI50 (HOP-62 NSCLC): > 26.2 µM
- TGI (HOP-62 NSCLC): > 100 µM
- GI50 (SR leukemia): 0.15 µM
- TGI (SR leukemia): > 75.8 µM
- GI50 (SK-MEL-28 melanoma): > 100 µM
- TGI (SK-MEL-28 melanoma): > 100 µM
- GI50 (SN12C renal): > 100 µM
- TGI (SN12C renal): > 100 µM
- GI50 (NCI/ADR-RES ovarian): 1.06 µM
- TGI (NCI/ADR-RES ovarian): > 100 µM
- GI50 (BT-549 breast): > 80.5 µM
- TGI (BT-549 breast): > 100 µM
- GI50 (IGROV1 ovarian): > 100 µM
- TGI (IGROV1 ovarian): > 100 µM
- TGI (ACHN renal): > 100 µM
- GI50 (NCI-H460 lung): 0.535 µM
- TGI (NCI-H460 lung): > 100 µM
- GI50 (OVCAR-3 ovarian): > 27.5 µM
- TGI (OVCAR-3 ovarian): > 100 µM

Compound: C/C(O)=C(\C=N\C(=S)N=Nc1c(O)[nH]c2ccccc12)C(=O)Nc1ccccc1C
- TGI (HL-60(TB) leukemia): > 100 µM
- TGI (MDA-MB-231 breast): > 100 µM
- TGI (DU-145 prostate): > 100 µM
- TGI (SF-268 CNS): > 100 µM
- TGI (HOP-92 NSCLC): > 100 µM
- TGI (HCT-116 colon): > 100 µM
- TGI (UACC-62 melanoma): > 100 µM
- TGI (SK-MEL-2 melanoma): > 100 µM
- TGI (HT29 colon): > 100 µM
- TGI (SF-539 CNS): > 100 µM
- TGI (EKVX NSCLC): > 100 µM
- TGI (OVCAR-4 ovarian): > 100 µM
- TGI (T-47D breast): > 100 µM
- TGI (SF-295 CNS): > 100 µM
- TGI (MDA-MB-435): > 100 µM
- TGI (RXF 393 renal): > 100 µM
- TGI (CAKI-1 renal): > 100 µM
- TGI (OVCAR-8 ovarian): > 100 µM
- TGI (SK-MEL-5 melanoma): > 100 µM
- TGI (SNB-75 CNS): > 100 µM
- TGI (OVCAR-5 ovarian): > 100 µM
- TGI (MDA-N): > 100 µM
- TGI (NCI-H23 lung): > 100 µM
- TGI (TK-10 renal): > 100 µM
- TGI (HCC-2998 colon): > 100 µM
- TGI (SNB-19 CNS): > 100 µM
- TGI (A498 renal): > 100 µM
- TGI (UO-31 renal): > 100 µM
- TGI (KM12 colon): > 100 µM
- TGI (A549 NSCLC): > 100 µM
- TGI (NCI-H226 lung): > 100 µM
- TGI (COLO 205 colon): > 100 µM
- TGI (UACC-257 melanoma): > 100 µM
- TGI (786-0 renal): > 100 µM
- TGI (MOLT-4 leukemia): > 100 µM
- TGI (SW-620 colon): > 100 µM
- TGI (U251 CNS): > 100 µM
- TGI (LOX IMVI melanoma): > 100 µM
- TGI (SK-OV-3 ovarian): > 100 µM
- TGI (HCT-15 colon): > 100 µM
- TGI (M14 melanoma): > 100 µM
- TGI (HOP-62 NSCLC): > 100 µM
- TGI (SK-MEL-28 melanoma): > 100 µM
- TGI (SN12C renal): > 100 µM
- TGI (NCI/ADR-RES ovarian): > 100 µM
- TGI (BT-549 breast): > 100 µM
- TGI (IGROV1 ovarian): > 100 µM
- TGI (ACHN renal): > 100 µM
- TGI (NCI-H460 lung): > 100 µM
- TGI (OVCAR-3 ovarian): > 100 µM
